This note sets out measurements from ChEMBL document CHEMBL1123458, “2-Phenylindenes: development of a new mammary tumor inhibiting antiestrogen by combination of estrogenic side effect lowering structural elements” (1986).

In test [1] the target is T1, Estrogen receptor (Mus musculus) (UniProt O08537+P19785). The test can be described thus: Anti-uterotrophic effect in mice at 1.0 ug. The format is functional.
Test [2] concerns the target Estrogen receptor (Bos taurus) (UniProt Q9XSB5+P49884). The test can be described thus: Inhibition of [3H]estradiol binding to calf uterine estrogen receptor. The test is classed as protein assay.
For test [3], the target named is T1, Estrogen receptor (Mus musculus). The test can be described thus: Anti-uterotrophic effect in mice at 25 ug. The test is classed as functional.
Test [4] has the same target. Description: Anti-uterotrophic effect in immature mice at 1.0 ug. The format is functional.
The target is the same in test [5]. The test can be described thus: Anti-uterotrophic effect in immature mice at 25 ug. The format is functional.
Test [6] shares this target. The test can be described thus: Anti-uterotrophic effect in mice at 100 ug. The format is functional.
The target is the same in test [7]. The test can be described thus: Anti-uterotrophic effect in immature mice at 100 ug. The test is classed as functional.
For test [8] the target is unchanged. The test can be described thus: Anti-uterotrophic effect in mice at 5 ug. The test is classed as functional.
For test [9] the target is unchanged. The test can be described thus: Anti-uterotrophic effect in immature mice at 5 ug. The test is classed as functional.

T1 sequence (O08537 whole entry, looked up): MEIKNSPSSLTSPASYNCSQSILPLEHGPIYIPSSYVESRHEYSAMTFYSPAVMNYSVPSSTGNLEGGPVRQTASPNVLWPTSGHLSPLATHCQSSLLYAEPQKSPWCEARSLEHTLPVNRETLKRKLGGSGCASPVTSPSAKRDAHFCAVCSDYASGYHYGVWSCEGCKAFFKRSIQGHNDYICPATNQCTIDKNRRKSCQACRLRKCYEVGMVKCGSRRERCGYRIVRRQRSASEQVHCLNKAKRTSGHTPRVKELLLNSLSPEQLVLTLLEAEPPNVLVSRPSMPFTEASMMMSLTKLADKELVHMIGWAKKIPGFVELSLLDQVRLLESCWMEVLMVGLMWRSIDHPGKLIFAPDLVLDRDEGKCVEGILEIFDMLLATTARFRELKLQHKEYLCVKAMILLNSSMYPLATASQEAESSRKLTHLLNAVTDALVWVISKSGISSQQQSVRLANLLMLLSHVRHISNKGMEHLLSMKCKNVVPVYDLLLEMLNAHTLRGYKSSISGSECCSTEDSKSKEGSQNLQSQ
T1 sequence (P19785 whole entry, looked up): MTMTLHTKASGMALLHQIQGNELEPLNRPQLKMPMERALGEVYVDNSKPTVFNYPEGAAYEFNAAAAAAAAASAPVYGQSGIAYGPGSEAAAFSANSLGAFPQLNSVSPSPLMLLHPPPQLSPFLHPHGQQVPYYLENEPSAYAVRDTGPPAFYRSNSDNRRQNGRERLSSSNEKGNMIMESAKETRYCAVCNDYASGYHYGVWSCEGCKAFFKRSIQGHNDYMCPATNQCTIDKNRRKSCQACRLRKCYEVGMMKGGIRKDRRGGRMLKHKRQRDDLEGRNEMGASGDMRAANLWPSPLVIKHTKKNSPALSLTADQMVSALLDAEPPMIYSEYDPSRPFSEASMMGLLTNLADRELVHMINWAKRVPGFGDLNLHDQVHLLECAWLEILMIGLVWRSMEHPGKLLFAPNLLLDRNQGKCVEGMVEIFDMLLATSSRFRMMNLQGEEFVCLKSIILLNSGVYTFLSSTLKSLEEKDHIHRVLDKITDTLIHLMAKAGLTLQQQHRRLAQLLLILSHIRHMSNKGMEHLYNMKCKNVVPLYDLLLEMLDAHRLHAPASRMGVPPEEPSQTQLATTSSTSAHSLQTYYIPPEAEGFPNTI

As to `CC(=O)c1cccc(C2=C(C(C)C)c3cc(C(C)=O)ccc3C2(C)C)c1`, the Effect is 30.3 mg 100g-1 in test [1] and 44.7 mg 100g-1 in [3]. The same compound yielded an RBA in [2] of 2%. Also, the values for the inhibition in test [4] and in test [5] were 21% and 0%, respectively.
Take `CC/C(=C(/CC)c1ccc(C(C)=O)c(C(C)=O)c1)c1ccc(C(C)=O)c(C(C)=O)c1`: the Effect was found to be 41.3 mg 100g-1 in test [6], 33.8 mg 100g-1 in test [1], 40.4 mg 100g-1 in test [3] and 27.4 mg 100g-1 in test [8]. The compound also had an RBA in test [2] of 1%. In addition, the inhibition was determined as 5% in test [7], 31% in test [4], 54% in [9] and 8% in test [5].
Consider `CCC1=C(c2cccc(C(C)=O)c2)C(C)c2ccc(C(C)=O)cc21` (configuration not stated), for which the Effect in test [1] was determined as 30.1 mg 100g-1; in test [3], 40.2 mg 100g-1; in test [8], 34.8 mg 100g-1. In test [2], this compound registered an RBA of 1.8%. The inhibition in [4] was 48%; in test [9] it was 30%; in [5], 9%.
For `CC(=O)c1ccc(C2=C(C(C)C)c3cc(C(C)=O)c(C(C)=O)cc3C2(C)C)cc1C(C)=O`, the Effect in [1] was found to be 29 mg 100g-1; in test [3], 32.5 mg 100g-1. This compound returned an RBA in [2] of 1.7%. For the same compound, the inhibition amounted to 28% in test [4] and 11% in test [5].
In the case of `CC/C(=C(/CC)c1cccc(C(C)=O)c1)c1cccc(C(C)=O)c1`, the RBA in test [2] came to 2.2%.

The term inhibition denotes the change of the read-out against control, counted positive when it falls.
